{
  "source": "patent US20160264602A1",
  "about": "“MANUFACTURING METHOD OF SILATRANE WITH THIOL GROUP AND PRESERVATION METHOD THEREOF” (NATIONAL CHUNG CHENG UNIVERSITY, priority 2015, published 2016)",
  "key": {"[1]": {"experiment": "Tests of preserving method: MPS dissolution and self-assembly of gold nanoparticles on MPS-modified glass substrate", "type": "physicochemical", "procedure": "Performing the tests of three preserving methods that preserve MPS under atmospheric condition, under nitrogen and in organic solvent.\nMost silane molecules in general are placed in a brown bottle and stored at 4° C. To investigate the preservation conditions for MPS, the efficiency of the self-assembly reaction of gold nanoparticles on the MPS-modified substrate is used as an indirect indicator. There are two advantages by this approach. First, gold nanoparticles have a characteristic surface plasmon resonance band which can be easily observed in a visible light spectrum and its absorbance is related to the surface coverage of the nanoparticles modified on the surface of the substrate. Second, the peak width of the surface plasmon resonance band is related to the uniformity of the gold nanoparticles distributed on the surface of the substrate. In the present study, gold nanoparticles with 13 nm in diameter are chosen, and the characteristic absorption peak is about 530 nm. After synthesis, purified and dried MPS are separately stored under atmospheric condition at 4° C. and in a brown bottle at room temperature under nitrogen.\nIf the purified MPS is dissolved in organic solvent and then preserved under atmospheric condition and room temperature without avoiding light, the activity of the sample can be preserved for at least 1 year and 6 months (ex. 1 year and 7 months) (referring to FIG. 3(a)).\nThe activity of the sample is tested with the self-assembly reaction of gold nanoparticles on the surface of the substrate treated by the sample and then observed by visible light spectroscopy and scanning electron microscopy. The results are shown in FIG. 4(a) and FIG. 4(b) wherein, all experiments are performed by immersing the substrate in a methanol solution of MPS and then modifying gold nanoparticles on the treated substrate for 30 minutes."}, "[2]": {"experiment": "Solubility of MPS in DMSO as time passes after manufacture", "type": "physicochemical", "procedure": "No matter what kind of foregoing method, the product must be dissolved in organic solvent within 30 minutes. The solubility of MPS in aqueous phase or organic phase solvents will decrease as time passes."}},
  "data": [
    {"smiles": "SCCC[Si]12OCCN(CCO1)CCO2", "note": "[MPS, (3-mercaptopropyl)silatrane]", "values": [
      {"measurement": "dissolution of preserved sample", "setting": "[1]; purified and dried MPS in brown bottle at room temperature under nitrogen, after 5 weeks", "value": "cannot be dissolved"},
      {"measurement": "dissolution of preserved sample", "setting": "[1]; purified and dried MPS under atmospheric condition at 4° C., after 3 weeks", "value": "cannot be dissolved in any solvent"},
      {"measurement": "time for which MPS can be preserved", "setting": "[1]; traditional nitrogen preservation method under dark condition", "value": "about two"},
      {"measurement": "solubility of MPS in dimethyl sulfoxide (DMSO)", "setting": "[2]; after 1 week", "value": "about 40%"},
      {"measurement": "solubility of MPS in dimethyl sulfoxide (DMSO)", "setting": "[2]; after 30 minutes", "value": "about 99%"},
      {"measurement": "solubility of MPS in dimethyl sulfoxide (DMSO)", "setting": "[2]; after 1 day", "value": "about 90%"}
    ]}
  ]
}
